Active and inactive are the calls of the source. The calls are words filed in the database; no cut-off is given here.
Experiments:
[1] = Cytotoxicity against mouse BV-2 cells assessed as cell viability at 10 uM measured after 24 hrs by MTT assay relative to control; format: toxicity, cell-based; conditions: read-out: Activity
[2] = (§1) Inhibition of LPS-induced NO production in mouse BV-2 cells at 10 uM measured after 24 hrs followed by induced with LPS for another 24 hrs by ELISA relative to control; format: functional
BV-2 [3] = test: as §1; format: functional
[4] = Permeability of compound in PBS/EtOH (70:30) buffer incubated for 18 hrs by PAMPA-BBB assay
BV-2 [5] = test: Anti-inflammatory activity against LPS-induced mouse BV-2 cells assessed as decrease in LPS-induced Cyclooxygenase-2 mRNA expression at 20 uM incubated for 4 hrs followed by LPS induced for 12 hrs by RT-PCR analysis relative to control; format: functional, cell-based; conditions: time 16.0 hrs

Row | SMILES | viability at 24 h, 10 µM [1] | inhibition at 10 µM [2] | inhibition (BV-2 [3]) | log Pe [4] | Activity (BV-2 [5])
1 | O=c1[nH]c2ccc(Nc3ncnc4c3ccn4Cc3ccc(F)cc3Cl)cc2o1 | 85.7% | 54.3% |  |  | 
2 | O=c1[nH]c2ccc(Nc3ncnc4c3ccn4Cc3cc(Cl)ccc3F)cc2[nH]1 | 70.3% |  | inactive |  | 
3 | COc1cc([C@H]2OC[C@H]3[C@@H]2CO[C@@H]3c2cc(OC)c(O)c(OC)c2)cc(OC)c1O [SYRINGARESINOL] | 91% | 75.6% |  |  | 
4 | O=c1[nH]c2ccc(Nc3ncnc4c3ccn4Cc3cccc(Cl)c3F)cc2[nH]1 | 73% |  | inactive |  | 
5 | O=c1[nH]c2ccc(Nc3ncnc4c3ccn4Cc3ccc(Cl)cc3)cc2[nH]1 | 91.7% | 71.3% |  |  | 
6 | O=c1[nH]c2ccc(Nc3ncnc4c3cnn4Cc3cccc(F)c3Cl)cc2[nH]1 | 83.2% | 96.2% |  |  | 
7 | COc1cccc(Cn2ccc3c(Nc4ccc5[nH]c(=O)[nH]c5c4)ncnc32)c1 | 88.5% | 63.8% |  |  | 
8 | CC1(C)S[C@@H]2[C@H](NC(=O)Cc3ccccc3)C(=O)N2[C@H]1C(=O)[O-].[Na+] [PENICILLIN G SODIUM] |  |  |  | -6.06 | 
9 | COc1cc(Cn2ccc3c(Nc4ccc5c(c4)CC(=O)N5)ncnc32)cc(OC)c1 | 53% |  | inactive |  | 
10 | O=c1[nH]c2ccc(Nc3ncnc4c3ccn4Cc3cc(F)cc(Cl)c3)cc2[nH]1 | 104% | 45.7% |  |  | 
11 | O=C(Cn1ccc2c(Nc3ccc4[nH]c(=O)[nH]c4c3)ncnc21)c1ccccc1 | 74.3% |  | inactive |  | 
12 | O=c1[nH]c2ccc(Nc3ncnc4c3ccn4Cc3ccc(F)cc3F)cc2[nH]1 | 98.2% | 54.3% |  |  | 
13 | COc1cc(Cn2ccc3c(Nc4ccc5[nH]c(=O)[nH]c5c4)ncnc32)cc(OC)c1 | 107% | 42.5% |  |  | 
14 | O=c1[nH]c2ccc(Nc3ncnc4c3ccn4Cc3cccc(F)c3Cl)cc2[nH]1 | 42.2% |  | inactive |  | 
15 | CCn1cc(C(=O)O)c(=O)c2cc(F)c(N3CCNCC3)nc21 [ENOXACIN] |  |  |  | -6.24 | 
16 | COc1ccc(Cn2ccc3c(Nc4ccc5[nH]c(=O)[nH]c5c4)ncnc32)cc1 | 115% | 76.6% |  |  | 
17 | Fc1ccc(Cn2ccc3c(Nc4ccc5cn[nH]c5c4)ncnc32)c(Cl)c1 | 76.2% |  | inactive |  | 
18 | Fc1ccc(Cn2ccc3c(Nc4ccc5scnc5c4)ncnc32)c(Cl)c1 | 61.7% |  | inactive |  | 
19 | COc1ccc2c3c1O[C@H]1C[C@@H](O)C=C[C@@]31CCNC2 | 91.2% | 55.7% |  |  | Active
20 | O=C(Cn1ccc2c(Nc3ccc4[nH]c(=O)[nH]c4c3)ncnc21)N1CCOCC1 | 102% | 54.3% |  |  | 
21 | O=c1[nH]c2ccc(Nc3ncnc4c3ccn4Cc3cc(F)ccc3F)cc2[nH]1 | 50.7% |  | inactive |  | 
22 | COc1cc(Cn2ccc3c(Nc4ccc5[nH]c(=O)oc5c4)ncnc32)cc(OC)c1 | 59.3% |  | inactive |  | 
23 | O=c1[nH]c2ccc(Nc3ncnc4c3cnn4Cc3ccc(Cl)cc3F)cc2[nH]1 | 57.8% |  | inactive |  | 
24 | O=c1[nH]c2ccc(Nc3ncnc4c3ccn4Cc3ccc(F)cc3Cl)cc2[nH]1 | 84.5% | 78.5% |  |  | 
25 | Cc1cccc(Cn2ccc3c(Nc4ccc5[nH]c(=O)[nH]c5c4)ncnc32)c1 | 59% |  | inactive |  | 

Row | SMILES | viability at 24 h, 10 µM [1] | inhibition at 10 µM [2] | inhibition (BV-2 [3]) | log Pe [4] | Activity (BV-2 [5])
26 | COc1cc(Cn2ccc3c(Nc4ccc5c(c4)OCO5)ncnc32)cc(OC)c1 | 93.2% | 70.2% |  |  | 
27 | O=c1[nH]c2ccc(Nc3ncnc4c3ccn4Cc3c(F)cccc3Cl)cc2[nH]1 | 77.2% |  | inactive |  | 
28 | O=c1[nH]c2ccc(Nc3ncnc4c3ccn4Cc3cccc4cccnc34)cc2[nH]1 | 84.7% | 43.8% |  |  | 
29 | O=c1[nH]c2ccc(Nc3ncnc4c3cnn4Cc3cc(Cl)cc(Cl)c3)cc2[nH]1 | 52.2% |  | inactive |  | 
30 | O=c1[nH]c2ccc(Nc3ncnc4c3ccn4Cc3c(Cl)cccc3Cl)cc2[nH]1 | 57.6% |  | inactive |  | 
31 | COc1ccc(Cn2ccc3c(Nc4ccc5[nH]c(=O)[nH]c5c4)ncnc32)cc1OC | 75.2% |  | inactive |  | 
32 | O=c1[nH]c2ccc(Nc3ncnc4c3ccn4Cc3ccc(Cl)cc3F)cc2[nH]1 | 72.1% |  | inactive |  | 
33 | Cn1ncc2cc(Nc3ncnc4c3ccn4Cc3ccc(F)cc3Cl)ccc21 | 79.2% |  | inactive |  | 
34 | Cc1ccccc1Cn1ccc2c(Nc3ccc4[nH]c(=O)[nH]c4c3)ncnc21 | 81.8% | 63.5% |  |  | 
35 | O=c1[nH]c2ccc(Nc3ncnc4c3ccn4Cc3ccc4c(c3)OCO4)cc2[nH]1 | 89.3% | 56.3% |  |  | 
36 | COc1cc(Cn2ccc3c(Nc4ccc5cn[nH]c5c4)ncnc32)cc(OC)c1 | 118% | 77.7% |  |  | 
37 | COc1cc(Cn2ccc3c(Nc4ccc5c(cnn5C)c4)ncnc32)cc(OC)c1 | 62.5% | 63.8% |  |  | 
38 | O=c1[nH]c2ccc(Nc3ncnc4c3ccn4Cc3ccc(Cl)c(F)c3)cc2[nH]1 | 83.1% | 103% |  |  | 
39 | O=c1[nH]c2ccc(Nc3ncnc4c3ccn4Cc3cc(C(F)(F)F)cc(C(F)(F)F)c3)cc2[nH]1 | 58.5% |  | inactive |  | 
40 | O=c1[nH]c2ccc(Nc3ncnc4c3ccn4Cc3ccc(F)c(Cl)c3)cc2[nH]1 | 57.3% |  | inactive |  | 
41 | O=C1Cc2cc(Nc3ncnc4c3ccn4Cc3ccc(F)cc3Cl)ccc2N1 | 56.6% |  | inactive |  | 
42 | O=c1[nH]c2ccc(Nc3ncnc4c3ccn4Cc3ccc(I)cc3)cc2[nH]1 | 98.7% | 74.5% |  |  | 
43 | Cc1ccc(Cn2ccc3c(Nc4ccc5[nH]c(=O)[nH]c5c4)ncnc32)cc1 | 77.2% |  | inactive |  | 
44 | COc1cc(Cn2ccc3c(Nc4ccc5scnc5c4)ncnc32)cc(OC)c1 | 84.5% |  | inactive |  | 
45 | O=c1[nH]c2ccc(Nc3ncnc4c3cnn4Cc3cccc(Cl)c3F)cc2[nH]1 | 53.3% |  | inactive |  | 
46 | O=c1[nH]c2ccc(Nc3ncnc4c3ccn4Cc3ccccc3)cc2[nH]1 | 99.7% | 76.6% |  |  | 
47 | O=c1[nH]c2ccc(Nc3ncnc4c3cnn4Cc3cc(F)cc(Cl)c3)cc2[nH]1 | 92.9% | 61.7% |  |  | 
48 | Fc1ccc(Cn2ccc3c(Nc4ccc5c(c4)OCO5)ncnc32)c(Cl)c1 | 96.9% | 46.8% |  |  | 
49 | O=c1[nH]c2ccc(Nc3ncnc4c3ccn4Cc3cccc4ccccc34)cc2[nH]1 | 59.7% |  | inactive |  | 

Reference: ChEMBL document CHEMBL6096669, “Design and synthesis of novel derivatives of bisepoxylignans as potent anti-inflammatory agents involves the modulation of the M1/M2 microglia phenotype via TLR4/NF-κB signaling pathway” (Eur J Med Chem, 2025)
